Experimental data: the supplement of paper PMC10307832

Tests used:
Assay in all cases: relative viability (nuclei count vs DMSO), 5 days (fraction); higher = more cells survive
Selisistat + Pictilisib = compound: C1CC(C2=C(C1)C3=C(N2)C=CC(=C3)Cl)C(=O)N [Selisistat] + CS(=O)(=O)N1CCN(Cc2cc3nc(-c4cccc5[nH]ncc45)nc(N4CCOCC4)c3s2)CC1 [Pictilisib] (partner 1 µM)
Procedure, shortened: (§1)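 A single step with final 0.05% Triton X-100, 1% formaldehyde and 1 ug/ml Hoechst fixed the cells and stained nuclei 5 days after treatment. Lung cancer cell lines in 1536-well plates had been treated by pin tool the day after seeding with one drug alone or a fixed anchor-drug dose plus five library-drug doses (not always all listed) in √10 steps, and nuclei were counted on 4× images. Relative viability is the ratio of nuclei in treated wells to nuclei in vehicle wells, taken as the median of duplicate plates.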

Serdemetan + Phenformin = compound: c1ccc2c(CCNc3ccc(Nc4ccncc4)cc3)c[nH]c2c1 [Serdemetan] + N=C(N)NC(=N)NCCc1ccccc1 [Phenformin] (partner 250 µM)
Procedure, shortened: as §1

Selisistat + AZD7762 = compound: C1CC(C2=C(C1)C3=C(N2)C=CC(=C3)Cl)C(=O)N [Selisistat] + NC(=O)Nc1cc(-c2cccc(F)c2)sc1C(=O)N[C@H]1CCCNC1 [AZD7762] (partner 0.2 µM)
Procedure, shortened: as §1

Selisistat + Trametinib = compound: C1CC(C2=C(C1)C3=C(N2)C=CC(=C3)Cl)C(=O)N [Selisistat] + CC(=O)Nc1cccc(-n2c(=O)n(C3CC3)c(=O)c3c(Nc4ccc(I)cc4F)n(C)c(=O)c(C)c32)c1 [Trametinib] (partner 0.02 µM)
Procedure, shortened: as §1

Cell Line	relative viability (Selisistat + Pictilisib; first compound 0.4 µM)	relative viability (Selisistat + Pictilisib; first compound 1.265 µM)	relative viability (Selisistat + Pictilisib; first compound 4 µM)	relative viability (Selisistat + Pictilisib; first compound 12.65 µM)	relative viability (Selisistat + Pictilisib; first compound 40 µM)	relative viability (Serdemetan + Phenformin; first compound 0.04 µM)	relative viability (Serdemetan + Phenformin; first compound 0.1265 µM)	relative viability (Serdemetan + Phenformin; first compound 0.4 µM)	relative viability (Serdemetan + Phenformin; first compound 1.265 µM)	relative viability (Serdemetan + Phenformin; first compound 4 µM)	relative viability (Selisistat + AZD7762; first compound 0.4 µM)	relative viability (Selisistat + AZD7762; first compound 1.265 µM)	relative viability (Selisistat + AZD7762; first compound 4 µM)	relative viability (Selisistat + AZD7762; first compound 12.65 µM)	relative viability (Selisistat + AZD7762; first compound 40 µM)	relative viability (Selisistat + Trametinib; first compound 0.4 µM)	relative viability (Selisistat + Trametinib; first compound 1.265 µM)	relative viability (Selisistat + Trametinib; first compound 4 µM)	relative viability (Selisistat + Trametinib; first compound 12.65 µM)	relative viability (Selisistat + Trametinib; first compound 40 µM)
NCI-H2085	0.524	0.406	0.454	0.575	0.467	0.778	0.762	0.634	0.571	0.424	1.06	1.02	0.67	0.992	0.983	0.518	0.61	0.581	0.554	0.761
NCI-H1734	0.479	0.488	0.404	0.486	0.445	0.303	0.318	0.338	0.156	0.181	0.594	0.485	0.453	0.505	0.607	0.714	0.674	0.656	0.694	0.718
NCI-H2126	0.525	0.496	0.398	0.526	0.584	0.555	0.557	0.535	0.512	0.527	1.04	1.04	0.992	1.03	1.03	0.557	0.57	0.565	0.555	0.605
EMC-BAC-2	0.551	0.53	0.477	0.577	0.524	0.527	0.543	0.514	0.382	0.494	1.08	1.11	1.07	0.661	0.598	0.907	0.927	0.96	0.885	0.816
NCI-H1993	0.702	0.81	–	0.828	0.854	0.516	0.539	0.596	0.454	0.532	0.793	0.791	–	0.954	0.816	0.519	0.496	–	0.518	0.573
NCI-H647	0.488	–	0.289	0.422	0.361	0.583	0.669	0.511	0.288	0.335	0.465	0.433	0.345	0.432	0.553	0.467	0.457	0.449	0.472	0.474
NCI-H1792	0.327	0.281	–	0.251	0.279	0.268	0.316	0.283	0.127	0.198	0.654	0.577	–	0.512	0.713	0.493	0.38	–	0.44	0.44
ChaGo-K-1	0.804	0.844	–	0.675	0.646	0.48	0.484	0.458	0.216	0.25	0.787	0.828	0.883	0.838	0.8	0.895	0.886	0.881	0.895	0.888
LOU-NH91	0.538	0.496	0.485	0.532	0.512	0.699	0.733	0.478	0.669	0.665	0.751	0.755	0.775	0.723	0.841	0.805	0.799	0.767	0.798	0.776
